Where two headings read alike, the source gives them in different places.
Columns and labels:
[1] = system: rGDA/IT bacteria culture (GDA/CIT/MIT-resistant); format: cell-based, Pseudomonas; conditions: no BM1, GNCCS, one inoculation
Description: (§1) All quoted bacterial counts (Total Viable Count (TVC) values are in cfu/ml) in the Tables herebelow are determined after 48 hours following plate-out and in accordance with the counting method described in “Bestimmung von aeroben mesophilen Keimen”, Schweizerisches Lebensmittelbuch, chapter 56, section 7.01, edition of 1985, revised version of 1988.
BM1 and ethylene diamine (hereafter “EDA”) were introduced into 50 g samples of each of the slurries indicated in Table 1 in the listed amounts (quoted in ppm based on the weight of the aqueous phase in the slurry). The samples were then stored at 30° C. for 72 hours. References were prepared according to the same protocol but in absence of EDA and in absence of EDA and BM1.
The slurry samples were then inoculated with 1 ml of a mixture of rGDA/IT bacteria culture. Each of the samples was incubated at 30° C. for 24 hours. Thereafter, a 1:10 dilution in phosphate buffered saline (PBS) was plated on plate count agar (PCA). These plates were incubated at 30° C. and analysed after 48 hours.
The biocide-resistant calcium carbonate slurry culture rGDA/IT is GDA/CIT/MIT-resistant and was obtained from product storage tanks located at white mineral dispersion (WMD) manufacturing plants that used the related biocide to preserve the products. […]
BM1 and a diamine selected from 1,3-bis(aminomethyl)cyclohexane (hereinafter “AMC”), 1,3-bis(aminomethyl)benzene (hereinafter “AMB”), 1,7-diaminoheptane (hereinafter “DAH”), and 1,8-diamionoocatane (hereinafter “DAO”) were introduced into 50 g samples of each of the slurries indicated in Table 4 in the listed amounts (quoted in ppm based on the weight of the aqueous phase in the slurry). The samples were then stored at 30° C. for 72 hours. References were prepared according to the same protocol but in absence of the respective diamine used and in the absence of the respective diamine and BM1. […]

[2] = system: rOPP bacteria culture (OPP-resistant); test: Biocidal activity in ground natural calcium carbonate slurry (GNCCS), Total Viable Count after inoculation with rOPP culture; format: cell-based, Pseudomonas putida and Pseudomonas stutzeri; conditions: one inoculation
Description: as §1
OPP, in the form of an aqueous solution having a concentration of 45%, and one of AMC, AMB, DAH, and DAO were introduced into 50 g samples of each of the slurries indicated in Table 6 in the listed amounts (quoted in ppm active content based on the weight of the aqueous phase in the slurry). References were prepared according to the same protocol but in absence of any one of AMC, AMB, DAH, and DAO. A reference was prepared according to the same protocol but in absence of AMC, AMB, DAH, and DAO and in absence of any biocide.
The slurry samples were then inoculated with 1 ml of a mixture of Pseudomonas species containing predominantly Pseudomonas putida and Pseudomonas stutzeri that are resistant to OPP. Each of the samples was incubated at 30° C. for 72 hours. Thereafter, a 1:10 dilution in phosphate buffered saline (PBS) was plated on plate count agar (PCA). These plates were incubated at 30° C. and analysed after […]. […]

Compound	TVC ([1]; diamine 750 ppm alone)	also measured
NCc1cccc(CN)c1 [AMB, 1,3-bis(aminomethyl)benzene]	1 × 10^6 cfu/ml	
NCC1CCCC(CN)C1 (stereo not shown) [AMC, 1,3-bis(aminomethyl)cyclohexane]	1 × 10^6 cfu/ml	
NCCCCCCCN [DAH, 1,7-diaminoheptane]	1 × 10^6 cfu/ml	
NCCCCCCCCN [DAO, 1,8-diamionoocatane]	1 × 10^6 cfu/ml	TVC ([2]; diamine 750 ppm alone, no OPP): 1 × 10^6 cfu/ml
NCCN [EDA, ethylene diamine]		TVC ([1]; EDA 1050 ppm on aqueous phase alone): 1 × 10^6 cfu/ml
Oc1ccccc1-c1ccccc1 [OPP, orthophenylphenol, reference compound]		TVC ([2]; OPP 250 ppm alone): 1 × 10^6 cfu/ml

From US20140288188A1, “Process for Stabilizing Bacterial Content of Aqueous Ground Natural Calcium Carbonate and/or Precipitated Calcium Carbonate and/or Dolomite and/or Surface-Reacted Calcium Carbonate-Comprising Mineral Preparations” (priority 2011, published 2014)
